Assay results taken from US8318504B2, “MRP2 efflux pathway prognostic method” (priority 2009, dated 2012).

How the values were obtained:
ABCC2 = target: T1, ABCC2 (Homo sapiens, UniProt Q92887); assay: CLF inhibition of DNP-SG transport into ABCC2 containing Sf21 membrane vesicles; format: biochemical; details: ATP-dependent transport, read-out: Half maximal inhibition of DNP-SG transport with CLF
T1 construct: made in house; host or cells: Sf21 insect cells, baculovirus; plasma membrane vesicles
Description: FIGS. 5A and 5B show CLF inhibition of DNP-SG and TC transport into ABCC2 (A) and ABCB11 (B) protein containing Sf21 membrane vesicles respectively. The values are expressed as a percentage of maximal ATP-dependent transport. Significance was tested using two-sided Student's t-test: *P<0.05 for transport in the presence vs. absence of inhibitor.
The production of recombinant baculovirus was as described by de Waart et al. [Liver Int 2006 April; 26(3):362-368]. ABCC3 and ABCG2-recombinant baculovirus were a kind gift from Borst [Breedveld P. et al., Cancer Res 2004 Aug. 15; 64(16):5804-5811 and Borst P. et al., J Biol Chem 2001 Dec. 7; 276(49):46400-46407.]. ABCB11-recombinant baculovirus was a kind gift from Thompson [Thompson R J et al., Gastroenterology 2002 November; 123(5):1649-1658]. Sf21 cells grown at 27° C. were infected with ABCB11, ABCC2, ABCC3 and ABCG2-cDNA containing baculovirus. Cells were harvested at 2-4 days after infection. […]
Transport studies with membrane vesicles were performed using the rapid filtration technique as described by Heijn M et al. [Am J Physiol 1992 January; 262(1 Pt 1):C104-C110]. Radiolabel was measured with a scintillation counter. […] Samples were pipetted in 96-well plates (Kartell, Noviglio, Italy) and the amount CLF quantitated by measurement of fluorescence at λexe 485 nm and λcm 520 nm using a NovoStar (BMG-labtech, Offenburg, Germany).

OATP1B1 = target: T2, OATP1B1 (Homo sapiens, UniProt Q9Y6L6); assay: Uptake of CLF into CHO cells expressing OATP1B1; format: cell-based; details: 1 μmol/L CLF, 1 or 5 minutes
T2 construct: expressed in transfected cells; host or cells: CHO cells (stably transfected; Treiber et al. 2007)
T2 sequence (Q9Y6L6 1-691): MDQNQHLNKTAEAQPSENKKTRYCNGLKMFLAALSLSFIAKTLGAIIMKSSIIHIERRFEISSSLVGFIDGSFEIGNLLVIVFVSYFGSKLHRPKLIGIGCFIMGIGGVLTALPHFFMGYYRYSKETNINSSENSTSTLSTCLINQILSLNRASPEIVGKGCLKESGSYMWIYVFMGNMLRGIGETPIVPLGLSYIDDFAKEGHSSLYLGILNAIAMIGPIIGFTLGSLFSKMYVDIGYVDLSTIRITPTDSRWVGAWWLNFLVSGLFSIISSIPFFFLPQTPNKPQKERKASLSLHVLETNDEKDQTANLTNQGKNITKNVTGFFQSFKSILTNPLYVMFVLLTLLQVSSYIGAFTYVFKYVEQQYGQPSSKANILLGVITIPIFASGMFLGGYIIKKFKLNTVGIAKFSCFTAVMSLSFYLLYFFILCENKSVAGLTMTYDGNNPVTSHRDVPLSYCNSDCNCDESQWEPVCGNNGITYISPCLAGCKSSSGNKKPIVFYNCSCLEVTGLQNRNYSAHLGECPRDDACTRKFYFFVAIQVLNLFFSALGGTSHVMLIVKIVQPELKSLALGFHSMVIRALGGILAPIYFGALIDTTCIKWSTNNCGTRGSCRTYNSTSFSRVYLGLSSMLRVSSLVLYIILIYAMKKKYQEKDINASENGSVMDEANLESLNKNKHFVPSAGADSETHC
Description: cDNA for human NTCP [Hagenbuch et al., J Clin Invest 1994 March; 93(3): 1326-1331] was cut with EcoRV and HindI and the coding region ligated into pcDNA5/FRT (Invitrogen, Life-Technologies, Carlsbad, Calif.). CHO FlpIn cells (Invitrogen, Life-Technologies) were transfected with the resulting construct using Lipofectamine® 2000 (Invitrogen, Life-Technologies). Stably transfected cells were selected with 550 μg Hygromycin-B in HAM-F12 medium (Gibco, Invitrogen, Life-Technologies). Transfected cells were cloned with the limiting dilution method. […] To further characterize the cloned cells, immunofluorescence localization of NTCP using a polyclonal antibody against NTCP [Kullak-Ublick G et al., Gastroenterology 1997 October; 113(4):1295-1305] was performed as described by Huber R D et al. [Am J Physiol Cell Physiol 2007 February; 292(2):[…]-[…]]. CHO cells expressing OATP1B1, OATP1B3 and OATP2B1 were described previously [Treiber et al., DMD 35:1400-1407, 2007]. […] After complete solubilization, 1.5 ml was used to measure fluorescence in a Perkin-Elmer LS-5 luminescence-spectrometer set at λexe 486 nm (slit 10 nm) and λem 520 nm (slit 5 nm). Protein was determined with the bicinchoninic acid method using a kit from Interchim (Montfuçon, France). […]

NTCP = target: T3, NTCP (Homo sapiens, UniProt Q14973); assay: Uptake of TC and CLF into CHO cells stably expressing NTCP; format: cell-based; details: 1 μmol/L CLF, 1 and 5 minutes, fluorescence analysis and quantitative determination
T3 construct: the coding region ligated into pcDNA5/FRT; expressed in transfected cells
T3 sequence (Q14973 1-349): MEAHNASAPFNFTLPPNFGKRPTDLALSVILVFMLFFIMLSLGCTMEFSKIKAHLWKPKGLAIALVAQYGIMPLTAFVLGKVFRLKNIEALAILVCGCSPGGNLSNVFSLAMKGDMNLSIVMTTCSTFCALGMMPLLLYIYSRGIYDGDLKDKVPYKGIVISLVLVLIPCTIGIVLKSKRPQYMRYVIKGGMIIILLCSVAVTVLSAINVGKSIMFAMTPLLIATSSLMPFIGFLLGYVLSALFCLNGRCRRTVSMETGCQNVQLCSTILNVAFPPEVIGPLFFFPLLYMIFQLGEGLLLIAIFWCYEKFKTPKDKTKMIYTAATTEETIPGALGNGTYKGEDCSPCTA
Description: cDNA for human NTCP [Hagenbuch et al., J Clin Invest 1994 March; 93(3): 1326-1331] was cut with EcoRV and HindI and the coding region ligated into pcDNA5/FRT (Invitrogen, Life-Technologies, Carlsbad, Calif.). CHO FlpIn cells (Invitrogen, Life-Technologies) were transfected with the resulting construct using Lipofectamine® 2000 (Invitrogen, Life-Technologies). Stably transfected cells were selected with 550 μg Hygromycin-B in HAM-F12 medium (Gibco, Invitrogen, Life-Technologies). Transfected cells were cloned with the limiting dilution method. […] To further characterize the cloned cells, immunofluorescence localization of NTCP using a polyclonal antibody against NTCP [Kullak-Ublick G et al., Gastroenterology 1997 October; 113(4):1295-1305] was performed as described by Huber R D et al. [Am J Physiol Cell Physiol 2007 February; 292(2):[…]-[…]]. CHO cells expressing OATP1B1, OATP1B3 and OATP2B1 were described previously [Treiber et al., DMD 35:1400-1407, 2007]. For all transport experiments, cells grown on 3 cm culture dishes were cultured for 24 hours in media supplemented with 5 mmol/L sodium-butyrate to increase expression levels of transfected transporters [Palermo D P et al., J Biotechnol 1991 June; 19(1):35-47]. • Transport experiments with uptake of radioactively labeled substrates: These experiments were performed as described by Huber R D et al. […] Uptake was performed in the same buffers as for the radioactive substrates above. For visualization of CLF uptake, cells were immediately inspected with a Leica-DM-IRBE-inverted-microcope (Leica-Microsystems, Wetzlar, Germany) equipped with a Hamamatsu-ORKA-ER-camera (Hamamatsu-Photonoics, Japan). To determine uptake of CLF, cells were solubilized by the addition of 2 ml 1% (w/v) Triton-X-100. After complete solubilization, 1.5 ml was used to measure fluorescence in a Perkin-Elmer LS-5 luminescence-spectrometer set at λexe 486 nm (slit 10 nm) and λem 520 nm (slit 5 nm). Protein was determined with the bicinchoninic acid method using a kit from Interchim (Montfuçon, France). […]

T1 sequence (Q92887 whole entry): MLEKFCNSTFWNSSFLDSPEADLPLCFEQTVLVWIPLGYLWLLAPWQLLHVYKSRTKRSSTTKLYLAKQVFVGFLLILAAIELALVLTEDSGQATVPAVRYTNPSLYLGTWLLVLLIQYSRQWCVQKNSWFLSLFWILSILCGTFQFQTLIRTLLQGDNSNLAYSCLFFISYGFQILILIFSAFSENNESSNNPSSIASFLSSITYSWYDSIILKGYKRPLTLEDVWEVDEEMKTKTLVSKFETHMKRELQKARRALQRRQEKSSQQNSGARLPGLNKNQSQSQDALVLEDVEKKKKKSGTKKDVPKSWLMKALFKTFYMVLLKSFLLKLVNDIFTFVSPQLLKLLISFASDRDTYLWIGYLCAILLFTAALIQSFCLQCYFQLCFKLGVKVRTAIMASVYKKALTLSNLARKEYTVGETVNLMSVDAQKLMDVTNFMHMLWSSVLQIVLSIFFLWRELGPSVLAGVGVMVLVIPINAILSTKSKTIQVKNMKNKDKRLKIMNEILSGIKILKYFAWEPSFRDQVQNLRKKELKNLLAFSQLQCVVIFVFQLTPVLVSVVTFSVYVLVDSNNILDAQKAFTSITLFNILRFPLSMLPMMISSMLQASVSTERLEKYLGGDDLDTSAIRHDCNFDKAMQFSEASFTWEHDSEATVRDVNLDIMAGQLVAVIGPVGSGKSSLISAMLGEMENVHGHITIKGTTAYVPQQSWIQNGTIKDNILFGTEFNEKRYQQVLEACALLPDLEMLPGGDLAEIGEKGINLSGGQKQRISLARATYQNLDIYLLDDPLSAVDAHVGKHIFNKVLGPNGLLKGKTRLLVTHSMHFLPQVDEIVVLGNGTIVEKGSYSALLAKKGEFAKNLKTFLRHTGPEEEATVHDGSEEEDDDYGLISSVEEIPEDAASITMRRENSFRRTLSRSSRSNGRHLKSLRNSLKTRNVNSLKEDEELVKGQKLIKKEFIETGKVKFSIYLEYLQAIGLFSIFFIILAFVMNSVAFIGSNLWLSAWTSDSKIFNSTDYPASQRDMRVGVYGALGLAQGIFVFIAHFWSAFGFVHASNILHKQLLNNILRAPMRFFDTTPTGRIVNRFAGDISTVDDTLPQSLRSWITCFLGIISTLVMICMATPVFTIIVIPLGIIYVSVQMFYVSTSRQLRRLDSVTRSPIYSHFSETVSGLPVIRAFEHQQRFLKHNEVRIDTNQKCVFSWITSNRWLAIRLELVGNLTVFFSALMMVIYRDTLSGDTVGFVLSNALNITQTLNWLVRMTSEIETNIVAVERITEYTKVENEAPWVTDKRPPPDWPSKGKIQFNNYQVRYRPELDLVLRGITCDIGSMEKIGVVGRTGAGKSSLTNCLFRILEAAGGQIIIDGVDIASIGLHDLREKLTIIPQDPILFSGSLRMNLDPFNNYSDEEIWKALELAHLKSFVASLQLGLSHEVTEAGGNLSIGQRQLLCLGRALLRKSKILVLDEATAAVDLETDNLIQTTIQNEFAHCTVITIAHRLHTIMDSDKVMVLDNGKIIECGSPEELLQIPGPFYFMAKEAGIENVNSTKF

CC(CCC(=O)NC(CCCCNC(=S)Nc1ccc(-c2c3ccc(=O)cc-3oc3cc(O)ccc23)c(C(=O)O)c1)C(=O)O)C1CCC2C3C(O)CC4CC(O)CCC4(C)C3CC(O)C12C (stereo not drawn) [CLF, cholyl lysyl fluorescein]
IC50 (ABCC2): ~1000 nM
uptake of CLF into OATP1B1 cells (OATP1B1): very weak but consistent
sodium-dependent uptake of CLF mediated by NTCP (NTCP): no sodium-dependent uptake
